How the values were obtained:
[1] = target: Leucine-rich repeat serine/threonine-protein kinase 2 (Homo sapiens, UniProt Q5S007); assay: Selectivity interaction (Adapta Assay) EUB0001632a LRRK2; settings: at 10 µM
[2] = target: T1, Cyclin-dependent kinase-like 5 (Homo sapiens) (UniProt O76039); assay: Selectivity interaction (Kinase panel (Z-LYTE Assay)) EUB0001632a CDKL5; settings: at 10 µM
T1 sequence (whole entry): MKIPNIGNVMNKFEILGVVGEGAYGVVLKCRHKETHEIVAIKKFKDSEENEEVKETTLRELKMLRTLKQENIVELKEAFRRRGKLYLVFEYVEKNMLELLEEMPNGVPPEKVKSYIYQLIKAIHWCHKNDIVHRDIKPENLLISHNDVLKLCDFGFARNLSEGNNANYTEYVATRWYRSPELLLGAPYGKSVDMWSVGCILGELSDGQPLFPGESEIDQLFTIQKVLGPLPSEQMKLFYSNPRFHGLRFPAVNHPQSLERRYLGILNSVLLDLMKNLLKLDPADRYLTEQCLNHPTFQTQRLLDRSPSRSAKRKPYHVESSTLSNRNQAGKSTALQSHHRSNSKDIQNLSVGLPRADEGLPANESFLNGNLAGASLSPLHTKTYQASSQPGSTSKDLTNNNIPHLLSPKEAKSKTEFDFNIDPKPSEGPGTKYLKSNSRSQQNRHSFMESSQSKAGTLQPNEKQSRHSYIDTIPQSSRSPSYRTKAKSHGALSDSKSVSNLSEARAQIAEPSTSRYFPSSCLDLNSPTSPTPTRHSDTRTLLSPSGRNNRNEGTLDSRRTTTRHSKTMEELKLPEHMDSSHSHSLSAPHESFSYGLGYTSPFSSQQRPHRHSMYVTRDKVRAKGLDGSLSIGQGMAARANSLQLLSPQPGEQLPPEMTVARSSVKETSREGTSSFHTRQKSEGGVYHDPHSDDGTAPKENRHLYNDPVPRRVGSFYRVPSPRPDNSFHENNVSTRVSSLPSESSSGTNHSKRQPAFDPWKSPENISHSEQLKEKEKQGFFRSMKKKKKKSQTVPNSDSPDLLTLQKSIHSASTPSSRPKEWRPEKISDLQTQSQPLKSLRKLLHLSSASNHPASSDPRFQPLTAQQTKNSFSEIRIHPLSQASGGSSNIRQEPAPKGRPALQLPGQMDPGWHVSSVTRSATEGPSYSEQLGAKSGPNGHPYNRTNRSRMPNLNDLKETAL

[3] = target: High affinity choline transporter 1 (Homo sapiens) (UniProt Q9GZV3); assay: Selectivity interaction (Eurofins CEREP Diversity Profile (receptors and ion channels)) EUB0000279b SLC5A7; settings: at 10 µM
Sequence of High affinity choline transporter 1 (Homo sapiens) (Q9GZV3 whole entry): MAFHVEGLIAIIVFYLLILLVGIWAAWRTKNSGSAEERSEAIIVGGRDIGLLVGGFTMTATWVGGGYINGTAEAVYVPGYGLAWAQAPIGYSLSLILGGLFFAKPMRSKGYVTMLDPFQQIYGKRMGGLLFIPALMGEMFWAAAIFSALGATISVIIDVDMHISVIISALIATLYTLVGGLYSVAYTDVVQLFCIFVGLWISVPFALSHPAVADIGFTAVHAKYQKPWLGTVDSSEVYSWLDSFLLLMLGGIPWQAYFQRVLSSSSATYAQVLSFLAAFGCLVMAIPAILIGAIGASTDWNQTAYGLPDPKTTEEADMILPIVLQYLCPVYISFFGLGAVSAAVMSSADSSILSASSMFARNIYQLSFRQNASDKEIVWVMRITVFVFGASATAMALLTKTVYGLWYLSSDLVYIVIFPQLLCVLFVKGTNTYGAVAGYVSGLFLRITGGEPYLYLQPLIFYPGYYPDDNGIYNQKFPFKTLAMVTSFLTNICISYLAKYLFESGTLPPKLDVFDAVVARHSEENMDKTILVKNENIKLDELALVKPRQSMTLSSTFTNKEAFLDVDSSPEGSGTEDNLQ

[4] = target: T2, Serine/threonine-protein kinase DCLK3 (Homo sapiens) (UniProt Q9C098); assay: Selectivity interaction (KinomeScan (DiscoverX)) EUB0000666a DCLK3; settings: at 10 µM
T2 sequence (whole entry): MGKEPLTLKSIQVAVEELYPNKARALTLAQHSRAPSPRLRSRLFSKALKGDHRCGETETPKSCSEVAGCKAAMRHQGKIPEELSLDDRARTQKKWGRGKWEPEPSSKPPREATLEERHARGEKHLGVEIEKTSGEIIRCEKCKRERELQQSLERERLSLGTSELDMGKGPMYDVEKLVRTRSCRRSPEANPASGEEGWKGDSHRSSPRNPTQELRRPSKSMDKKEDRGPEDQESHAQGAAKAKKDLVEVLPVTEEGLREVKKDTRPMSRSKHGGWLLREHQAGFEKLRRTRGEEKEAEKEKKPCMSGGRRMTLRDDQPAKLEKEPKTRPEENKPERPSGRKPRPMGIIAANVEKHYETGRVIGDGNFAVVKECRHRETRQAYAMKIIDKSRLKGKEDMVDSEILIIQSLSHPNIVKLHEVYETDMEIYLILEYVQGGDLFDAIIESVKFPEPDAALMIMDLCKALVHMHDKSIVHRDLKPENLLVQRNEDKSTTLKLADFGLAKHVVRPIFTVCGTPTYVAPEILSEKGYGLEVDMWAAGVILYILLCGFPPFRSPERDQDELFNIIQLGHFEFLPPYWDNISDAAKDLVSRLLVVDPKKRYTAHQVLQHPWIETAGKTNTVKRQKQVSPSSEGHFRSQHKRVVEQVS

[5] = target: Vascular endothelial growth factor receptor 2 (Homo sapiens, UniProt P35968); assay: Selectivity interaction (SelectScreen profiling (Invitrogen)) EUB0000607a KDR; settings: at 2 µM
Sequence of Vascular endothelial growth factor receptor 2 (P35968 whole entry): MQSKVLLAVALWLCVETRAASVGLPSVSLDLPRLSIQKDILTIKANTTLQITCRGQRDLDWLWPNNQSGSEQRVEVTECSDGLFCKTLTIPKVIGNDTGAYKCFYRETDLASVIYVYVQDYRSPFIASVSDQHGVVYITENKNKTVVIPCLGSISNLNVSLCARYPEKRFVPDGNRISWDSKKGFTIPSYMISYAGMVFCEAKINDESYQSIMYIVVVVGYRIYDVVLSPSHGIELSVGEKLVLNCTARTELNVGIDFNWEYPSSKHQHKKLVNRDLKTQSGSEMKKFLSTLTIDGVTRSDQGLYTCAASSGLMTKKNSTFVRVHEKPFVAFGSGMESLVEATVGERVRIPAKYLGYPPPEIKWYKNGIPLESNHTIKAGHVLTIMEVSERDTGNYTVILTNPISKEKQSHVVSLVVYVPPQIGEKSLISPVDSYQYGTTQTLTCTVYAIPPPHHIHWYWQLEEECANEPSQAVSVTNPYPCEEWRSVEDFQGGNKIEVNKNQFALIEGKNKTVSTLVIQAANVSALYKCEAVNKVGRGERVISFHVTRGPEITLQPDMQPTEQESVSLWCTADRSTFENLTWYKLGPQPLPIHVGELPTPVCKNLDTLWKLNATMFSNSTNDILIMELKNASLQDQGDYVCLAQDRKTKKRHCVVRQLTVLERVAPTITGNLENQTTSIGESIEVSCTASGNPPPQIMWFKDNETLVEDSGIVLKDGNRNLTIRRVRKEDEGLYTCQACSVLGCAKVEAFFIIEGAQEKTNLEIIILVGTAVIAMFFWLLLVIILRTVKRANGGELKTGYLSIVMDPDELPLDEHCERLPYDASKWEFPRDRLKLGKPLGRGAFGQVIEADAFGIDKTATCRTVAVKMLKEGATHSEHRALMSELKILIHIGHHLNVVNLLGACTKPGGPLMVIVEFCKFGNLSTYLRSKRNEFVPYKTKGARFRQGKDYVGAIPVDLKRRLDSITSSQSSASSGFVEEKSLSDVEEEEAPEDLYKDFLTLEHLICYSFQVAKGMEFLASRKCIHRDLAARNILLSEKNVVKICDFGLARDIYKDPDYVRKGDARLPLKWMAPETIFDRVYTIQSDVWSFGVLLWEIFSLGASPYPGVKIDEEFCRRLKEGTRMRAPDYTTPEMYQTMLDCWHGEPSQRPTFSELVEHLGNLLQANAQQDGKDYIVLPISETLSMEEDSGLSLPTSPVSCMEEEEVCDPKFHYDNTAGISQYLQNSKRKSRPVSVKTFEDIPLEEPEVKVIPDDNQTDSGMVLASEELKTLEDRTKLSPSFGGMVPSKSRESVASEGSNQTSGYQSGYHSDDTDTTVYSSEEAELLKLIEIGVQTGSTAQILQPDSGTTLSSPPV

[6] = target: Calcium/calmodulin-dependent protein kinase type II subunit alpha (Homo sapiens, UniProt Q9UQM7); assay: Selectivity interaction (Upstate Kinase Profiler service (Millipore, enzymatic assay)) EUB0000056c CAMK2A
Sequence of Calcium/calmodulin-dependent protein kinase type II subunit alpha (Q9UQM7 whole entry): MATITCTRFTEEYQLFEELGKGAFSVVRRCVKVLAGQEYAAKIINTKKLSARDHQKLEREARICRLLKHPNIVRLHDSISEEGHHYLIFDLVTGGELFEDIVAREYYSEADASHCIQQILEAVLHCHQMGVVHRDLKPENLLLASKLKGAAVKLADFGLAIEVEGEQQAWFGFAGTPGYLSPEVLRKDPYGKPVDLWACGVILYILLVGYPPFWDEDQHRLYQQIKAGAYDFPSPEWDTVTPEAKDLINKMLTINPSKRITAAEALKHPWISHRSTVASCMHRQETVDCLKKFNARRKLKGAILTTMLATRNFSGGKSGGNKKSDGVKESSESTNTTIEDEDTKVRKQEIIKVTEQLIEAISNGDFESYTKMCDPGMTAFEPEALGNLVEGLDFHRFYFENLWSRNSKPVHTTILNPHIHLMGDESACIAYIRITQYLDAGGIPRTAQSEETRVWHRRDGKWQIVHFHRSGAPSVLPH

[7] = target: Serine/threonine-protein kinase 32C (Homo sapiens) (UniProt Q86UX6); assay: Selectivity interaction (KinomeScan (DiscoverX)) EUB0000695a STK32C; settings: at 100 nM
Sequence of Serine/threonine-protein kinase 32C (Homo sapiens) (Q86UX6 whole entry): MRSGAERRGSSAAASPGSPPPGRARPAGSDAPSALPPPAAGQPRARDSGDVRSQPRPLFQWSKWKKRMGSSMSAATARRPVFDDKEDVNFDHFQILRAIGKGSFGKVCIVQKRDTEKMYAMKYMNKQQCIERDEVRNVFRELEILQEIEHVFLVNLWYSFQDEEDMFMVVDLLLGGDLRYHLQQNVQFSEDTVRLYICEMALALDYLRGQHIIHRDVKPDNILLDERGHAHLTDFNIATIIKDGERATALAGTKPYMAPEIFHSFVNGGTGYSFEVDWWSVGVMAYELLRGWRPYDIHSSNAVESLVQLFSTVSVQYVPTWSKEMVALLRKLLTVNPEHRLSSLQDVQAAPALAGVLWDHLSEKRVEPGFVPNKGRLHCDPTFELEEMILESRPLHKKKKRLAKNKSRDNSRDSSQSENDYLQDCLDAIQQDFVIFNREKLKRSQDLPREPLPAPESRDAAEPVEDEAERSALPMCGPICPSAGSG

[8] = target: Serine/threonine-protein kinase N2 (Homo sapiens, UniProt Q16513); assay: Selectivity interaction (KinomeScan (DiscoverX)) EUB0000695a PKN2; settings: at 100 nM
Sequence of Serine/threonine-protein kinase N2 (Q16513 whole entry, looked up): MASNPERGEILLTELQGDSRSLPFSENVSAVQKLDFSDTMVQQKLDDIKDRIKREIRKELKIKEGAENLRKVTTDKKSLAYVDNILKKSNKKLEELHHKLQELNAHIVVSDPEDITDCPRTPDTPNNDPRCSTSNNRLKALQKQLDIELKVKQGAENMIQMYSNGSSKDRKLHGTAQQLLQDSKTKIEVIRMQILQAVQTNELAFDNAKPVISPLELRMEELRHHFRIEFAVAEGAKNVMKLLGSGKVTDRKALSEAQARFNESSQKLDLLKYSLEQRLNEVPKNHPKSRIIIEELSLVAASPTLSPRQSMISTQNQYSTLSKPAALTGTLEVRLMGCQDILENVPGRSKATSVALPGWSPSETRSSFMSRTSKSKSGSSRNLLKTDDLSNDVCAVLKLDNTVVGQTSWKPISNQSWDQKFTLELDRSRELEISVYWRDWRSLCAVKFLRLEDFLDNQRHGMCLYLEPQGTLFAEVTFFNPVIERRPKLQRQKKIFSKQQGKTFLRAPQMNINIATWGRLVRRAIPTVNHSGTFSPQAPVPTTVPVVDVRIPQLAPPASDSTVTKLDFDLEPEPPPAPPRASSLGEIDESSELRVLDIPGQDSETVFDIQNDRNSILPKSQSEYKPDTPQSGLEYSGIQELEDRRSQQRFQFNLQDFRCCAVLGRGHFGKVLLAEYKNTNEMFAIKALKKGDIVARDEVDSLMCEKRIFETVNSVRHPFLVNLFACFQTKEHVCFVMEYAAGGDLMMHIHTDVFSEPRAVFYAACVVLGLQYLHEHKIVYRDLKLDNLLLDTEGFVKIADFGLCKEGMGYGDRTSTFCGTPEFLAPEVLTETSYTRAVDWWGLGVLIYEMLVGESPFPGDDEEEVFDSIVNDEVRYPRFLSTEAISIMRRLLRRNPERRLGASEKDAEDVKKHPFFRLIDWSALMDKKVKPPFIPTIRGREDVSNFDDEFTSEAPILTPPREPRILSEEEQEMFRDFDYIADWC

[9] = test system: Tyrosine-protein kinase ABL1 (Homo sapiens), P00519 [T315I]; assay: Selectivity interaction (Ambit KINOMEscan and KiNATiv profiling in Jurkat cells) EUB0000090b ABL1; format: cell-based; settings: at 1 µM
[10] = target: L-type calcium channel Cav1.2 (CACNA1C) (Homo sapiens, UniProt Q13936); assay: Selectivity interaction (Panel of kinases, GPCRs, ion channels and transporters (enzymatic assay)) EUB0000223bCl CACNA1C
[11] = target: Wee1-like protein kinase (Homo sapiens) (UniProt P30291); assay: Selectivity interaction (KinomeScan (DiscoverX)) EUB0001079a WEE1; settings: at 1 µM
Sequence of Wee1-like protein kinase (Homo sapiens) (P30291 whole entry, looked up): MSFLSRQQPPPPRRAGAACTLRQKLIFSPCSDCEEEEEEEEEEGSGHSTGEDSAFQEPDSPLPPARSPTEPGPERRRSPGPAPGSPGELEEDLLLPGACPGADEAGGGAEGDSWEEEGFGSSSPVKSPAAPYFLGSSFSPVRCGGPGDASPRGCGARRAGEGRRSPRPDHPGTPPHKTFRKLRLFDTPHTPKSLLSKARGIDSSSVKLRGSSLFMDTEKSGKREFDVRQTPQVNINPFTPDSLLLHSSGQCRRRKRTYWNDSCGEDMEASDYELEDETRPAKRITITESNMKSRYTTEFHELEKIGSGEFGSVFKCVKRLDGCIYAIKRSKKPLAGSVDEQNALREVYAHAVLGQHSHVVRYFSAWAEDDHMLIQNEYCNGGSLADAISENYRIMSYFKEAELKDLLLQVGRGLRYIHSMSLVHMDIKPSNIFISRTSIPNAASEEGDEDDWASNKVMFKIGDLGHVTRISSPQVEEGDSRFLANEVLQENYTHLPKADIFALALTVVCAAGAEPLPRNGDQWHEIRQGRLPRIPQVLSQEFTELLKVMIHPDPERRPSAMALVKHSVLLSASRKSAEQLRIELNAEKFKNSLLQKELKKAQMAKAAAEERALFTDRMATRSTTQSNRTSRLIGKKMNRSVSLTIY

Structure (SMILES): Cn1cc(-n2cnc3c(NCc4nc5cc(Cl)c(Cl)cc5[nH]4)nc(N4CCOCC4)nc32)cn1
- % of inhibition [1]: 100%
- % of control [2]: 4.16%

Structure (SMILES): CC(=O)c1cc(-c2ccccc2OCC2CC2)c2ncccn12
- % of control [3]: 90%

Structure (SMILES): O=C(NOC[C@H](O)CO)c1ccc(F)c(F)c1Nc1ccc(I)cc1F
- % of control [4]: 100%

Structure (SMILES): CNC(=O)Nc1ccc(-c2nc(N3CC4CCC(C3)O4)c3cnn(C4CCC5(CC4)OCCO5)c3n2)cc1
- % of inhibition [5]: 7%

Structure (SMILES): Cc1ccc(-c2ccc3c(ccc4sc5c(c43)NC[C@@H](C)NC5=O)n2)cn1
- IC50 [6]: 70 nM

Structure (SMILES): Cc1cc(F)c(C(=O)Nc2cccc(-c3nncn3C(C)C)n2)cc1-n1cnc(C2CC2)c1
- % of control [7]: 100%
- % of control [8]: 63%

Structure (SMILES): CN(C)C/C=C/C(=O)Nc1ccc(C(=O)N2CCCC(Nc3ncc(Cl)c(-c4c[nH]c5ccccc45)n3)C2)cc1 (stereo unspecified)
- % of control [9]: 100%

Structure (SMILES): COc1cc(C(=O)N2CC[C@@H](O)[C@@H](N)C2)cc2nc(-c3cc4ccccc4n3CC3CC3)n(C)c12
- XC50 [10]: 3980 nM

Structure (SMILES): Nc1cnc(N2CCc3cc(S(=O)(=O)Nc4c(F)cc(Cl)cc4F)cc(N4CCCC4=O)c32)nc1 [TP-020n]
- % of control [11]: 72%

Reference: ChEMBL document CHEMBL5465560, “Selectivity Literature for EUbOPEN Chemogenomic Library” (2024)
